In patent US5925571A, “Method of testing immune competency” (Oxi-Gene, Inc., priority 1997, dated 1999):

Key:
[1] = test system: ADPRT (ADP-ribosylation) in HML; assay: HML + neutrophil co-culture exposed to PMA: HML ADP-ribosylation versus HOCl production; assay type: cell-based, human; conditions: 1×10^6 HML with 0 to 4×10^6 neutrophils, PMA 25 ng/ml, 30 min at 37° C.; FIG. 1
Procedure: HOCl measurement.--Mixed cultures of HML+ neutrophils were assayed for the production of HOCl in the extracellular conditioned medium by removal of the cells by centrifugation following the incubation period, and immediately trapping the produced HOCl with taurine (20 mM). Taurine chloramine was then quantified spectrophotometrically by using the conversion of I^- to I2 (E=2.29×10^4 M^-1 cm^-1). Details of this procedure have been described by Weiss et al (J. Clin. Invest. 70:598-607, 1982).
(§1) ADPRT assay.--The procedure was adapted from the permeabilized cell technique of Berger (Methods Cell Biol. 20:325-340, 1988) with modifications as previously described (Pero et al, Carcinogenesis 10:1657-64, 1989). Duplicate samples of 1×10^6 HML in the presence of 0 to 4×10^6 neutrophils were cultured in 1 ml of KRPG buffer for 30 min at 37° C. in the presence of PMA (phorbol-12-myristate-13-acetate, 25 ng/ml). After this co-incubation, the HML+ neutrophil mixtures were harvested by centrifugation, permeabilized, and ADPRT activity determined by radiometric procedure as described in detail elsewhere (Pero et al, Carcinogenesis 10:1657-64, 1989). […]
This Example establishes that human phagocytes (i.e. neutrophils) produce physiologic relevant concentrations of endogenous ADPRT inhibitors. […] The respiratory burst induced by PMA exposure of neutrophils was monitored by HOCl production. […]

[2] = test system: ADPRT (adenosine diphosphate ribosyl transferase) in HML; assay: PMA induced ADPRT activity in HML treated with HOCl or chloramine T (permeabilized cell radiometric assay); assay type: cell-based, human; conditions: doses of 80 μM; 30 min at 37° C., then PMA 25 ng/ml for 30 min; versus zero-dose control; FIG. 2
Procedure: as §1
The effect of various dosage levels of chloramine T and HOCl on PMA induced ADPRT activity in HML was investigated utilizing the procedures described above for such tests, measuring the PMA induced ADPRT activity for HML subjected to the various dosages, and comparing the values obtained with measured control values of PMA induced ADPRT activity in HML from the same source but with zero dosages of chloramine T and HOCl.

## Cc1ccc(S(=O)(=O)[N-]Cl)cc1.[Na+] [N-chloramine, chloramine T]
[1]
  produced concentration sufficient to cause inhibition of HML ADP-ribosylation: about 80 μM
[2]
  inhibition of HML ADPRT activity: > 80%

## OCl [HOCl]
[1]
  produced concentration sufficient to cause inhibition of HML ADP-ribosylation: about 80 μM
[2]
  inhibition of HML ADPRT activity: > 80%
